We go through one compound from patent publication US12419891B2, “Compositions for the treatment of pathogenic- and/or chemical-induced lung injury and for the treatment of cancer and methods of using same” (Duke University, priority 2019, dated 2025).

The structures appear in SMILES notation.

For assay [1], the system named is primary human bronchial epithelial cells (HBECs). The experiment in a line: basal cell differentiation of primary HBECs in air-liquid interface (ALI) cultures. The conditions noted are these: vs vehicle. It is filed as cell-based. From the text: Cell Culture. Primary human bronchial epithelial cells were isolated as previously described (Fulcher M L & Randell S H (2013) Methods Mol Biol 945:109-121) and passage 1 cells were derived from human lungs unsuitable for transplantation from non-smoker organ donors without pre-existing lung disease under protocol #03-1396 approved by the University of North Carolina at Chapel Hill Biomedical Institutional Review Board. Informed consent was obtained from authorized representatives of all organ donors. 30,000 cells were plated into each well of 6.5 mm polyester inserts containing 0.4 μm pores (Sigma-CLS3470) coated with Type IV human placenta collagen (Sigma-C7521). 100 μl of ALI medium was added to the insert and 600 μl of ALI medium was added to the well at the time of plating. At Day 3, ALI medium from the insert was removed while that in the well was changed daily for 28 days. At Day 28, the inserts containing the cells were removed from their wells, washed with PBS, and incubated at 37° C. for 30 minutes with 1×10^8 CFU S. aureus. Cells were then washed three times with PBS and returned to wells containing 600 μl of ALI medium to regrow. Cells were harvested at multiple time points up to five days after injury for protein or RNA extraction. All cultures were maintained at 37° C. in humidified air containing 5% CO2.
First, the role of Abl kinases in basal cell differentiation in primary human bronchial epithelial cells (HBECs) in air-liquid interface (ALI) cultures was examined. Basal cells were isolated from human donor lungs and plated on polyester transwell inserts at passage 1. Once the cells were 100% confluent (3-4 days after plating), media from the top chamber of the transwell insert was removed to promote differentiation of the basal cells into a pseudostratified ciliated epithelium (FIG. 19A). […] Among these are acetylated α-tubulin and SNTN (ciliated cell marker) and SCGB3A2 (secretory cell marker) (FIG. 19C).
To identify whether Abl kinase inhibition promotes early (Krt5+ cells→Krt8+ cells) or late (Krt8+→acetylated α-tubulin or Scgb1a1+ cells) differentiation, a time course experiment in primary HBEC ALI cultures was conducted. Primary HBECs were plated on polyester transwell inserts and treated with vehicle control or GNF5 24 hours after plating.

Assay [2] relates to Kras G12D/+; p53 -/- driven lung tumors. It is filed as in vivo, mouse. To be noted: GNF5 b.i.d.; docetaxel at sub-therapeutic dose; vehicle four-fold increase.
In assay [3] the test system is Basal cells (bronchospheres). Description: bronchosphere 3D Matrigel culture assay. It is filed as cell-based, human. Here is the method:
The effect of Abl kinase inhibition on the development of bronchospheres in a 3D Matrigel culture assay was also evaluated. Basal cells were cultured in Matrigel at passage 1 and treated with vehicle control, the Abl kinase inhibitor, GNF5, or the Abl kinase activator, DPH, for three days starting two days after plating the cells.

The test system of assay [4] is mouse airway epithelium after SO2 injury. The experiment in a line: sulfur dioxide (SO2) airway injury mouse model. It counts as in vivo. From the text: To evaluate whether the Abl kinases promote basal cell differentiation in vivo, the sulfur dioxide (SO2) injury model was employed (FIG. 22). SO2 inhalation elicits cell death and sloughing of luminal (ciliated and secretory) cells, leaving a layer of intact basal cells in the tracheobronchial region (Zuo W. et al. (2015) Nature. 517(7536):616-20). Previous studies have shown that after SO2-induced destruction and sloughing of luminal cells, the surviving basal cells (Krt5+) proliferate to generate progenitor cells (Krt8+) that accumulate and subsequently undergo differentiation into ciliated (acetylated alpha-tubulin+) and secretory (Scgb1a1+) cells (5 days to 2 weeks after injury) (Hogan B L, et al. (2014) Cell stem cell, 15(2):123-38). This well-defined model of airway injury and regeneration has been employed to identify signaling pathways that promote proliferation and differentiation of the lung epithelium after injury (Hogan B L, et al. (2014) Cell stem cell, 15(2):123-38, Tadokoro T, et al., (2014) Proceedings of the National Academy of Sciences of the U.S.A. 111(35):E3641-9).
To distinguish between protective and regenerative effects of Abl kinase inhibition, the expression of various proliferation and differentiation markers in the mouse trachea after injury was evaluated.
Next, whether Abl kinase inhibition promotes basal cell differentiation to Krt8+ cells by affecting Yap1 signaling was investigated. Three days after SO2 injury, mouse tracheas were harvested and evaluated for Yap1 protein expression by immunofluorescence.

`O=C(NCCO)c1cccc(-c2cc(Nc3ccc(OC(F)(F)F)cc3)ncn2)c1` [GNF5, N-(2-Hydroxyethyl)-3-(6-(4-(trifluoromethoxy)phenylamino)pyrimidin-4-yl)benzamide]: in assay [1] (7 days after plating), the “SNTN expression (RT-PCR)” value is “increase in expression of SNTN”. Moreover, the “Krt8 expression (immunofluorescence and Western blot)” value in assay [1] (treated 24 hours after plating) is given as “significant increase in expression of Krt8”. Also, the “change in tumor size over a two-week period (μCT)” value in assay [2] was “two-fold increase in tumor size”. In assay [3] (bronchosphere lysates), the “SOX2 (basal cell marker) expression, immunoblot” value is recorded as “decrease in the basal cell marker, SOX2” and the “acetylated α-tubulin (ciliated cell marker) expression, immunoblot” value is reported as “increase in the ciliated cell marker, acetylated α-tubulin”. In addition, in assay [3] (treated three days starting two days after plating), the “bronchosphere growth: basal cell proliferation and differentiation” value was “promoted basal cell proliferation and differentiation”. Further, the “Ki67 (proliferation marker) protein expression” value in assay [3] (vs untreated cells) is listed as “increase in protein expression of the proliferation marker, Ki67”. The “Ki67 expression in tracheal basal cells” value in assay [4] (24 h following SO2 induced injury, vs untreated) was “significant increase in the expression of Ki67”. Further, the “Scgb1a1+ Club cells and acetylated α-tubulin+ ciliated cells (staining)” value in assay [4] (24 hours after SO2 exposure) was “mostly intact layer of secretory cells and some ciliated cells”. Besides, in assay [4] (24 hours after sulfur dioxide, pre-treatment 24 hours before), the “quantification of acetylated α-tubulin+ ciliated cells in whole tracheas” value was “protection of ciliated cells”. In addition, the “pseudostratified epithelium in whole trachea sections (immunofluorescence)” value in assay [4] (after SO2 injury, vs untreated mice) was “preservation of the pseudostratified epithelium”. Further, in assay [4] (three days after SO2 injury), the “Yap1 localization in basal cells” value is listed as “predominantly cytoplasmic localization of Yap1” and the “tracheal epithelium morphology (H&E)” value was “stratified, columnar, ciliated epithelium that had almost completely recovered from injury”. For the same compound, the “state of airway epithelium” value in assay [4] (within 24 hours after SO2 injury, pre-treated mice) is “mostly intact mouse airway epithelium”.
